In US20100041089A1, “IMPROVED METHOD FOR DETECTING CHEMICAL […]” (priority 2006, published 2010):

Tested on: yeast genes (expressed mRNA)
Test: DNA chip measurement of expressed mRNA of yeast genes after culture with a toxic chemical substance
Assay type: cell-based, Saccharomyces cerevisiae S288C
Description: Yeast (Saccharomyces cerevisiae S288C (a SUC2mal mel gap2 CUP1)) were cultured at 25° C. on YPD medium (yeast extract 1%, polypeptone 2%, glucose 2%). One of toxic chemical substances was added to the cell at logarithmic growth phase, and the cell was further cultured for two hours. Cell was cultured without any chemical substance in the same condition, and was used as a control. Concentrations of the chemical substances were defined to inhibit the growth of the yeast but not lead to death.
After the completion of cultivation, the culture was centrifuged to collect the cells. To the cells, sodium acetate buffer (50 mM sodium acetate, 10 mM EDTA, 1% SDS) was added, and the mixture was shaken at 65° C. for five minutes, followed by returning to room temperature, and obtaining the supernatant, which procedure was repeated two times. To the supernatant, ½ amount of a solution of phenol/chloroform (1:1) was added, and the mixture was centrifuged to give a supernatant, an equal amount of chloroform was added, and the mixture was centrifuged to give a supernatant. To the supernatant, an equal amount of isopropanol containing 0.3 M sodium acetate was added, and the mixture was allowed to stand at room temperature for 30 minutes, after which the mixture was centrifuged to give sediment of the whole RNAs. Seventy % ethanol was added to the sediment, and the mixture was again centrifuged to give sediment, which was then dried and dissolved in water. mRNA was isolated from the whole RNAs as followings. In view of the fact that a poly A chain is attached to the 3′ terminus of mRNA, a polynucleotide having a poly T structure which was immobilized on the surface of latex beads was used to trap the mRNA, and then the mRNA was washed and eluted with spine column (Oligotex-dT30<Super>mRNA Purification Kit, Takara). Reverse transcription of the mRNA was conducted with a reverse transcriptase (Super Script II Reverse Transcriptase; catalogue No. 18064-014, GibcoBRL) using fluorescence-labeled nucleotides to give cDNAs that were introduced with Cy3-dUTP or Cy5-dUTP during the reverse transcription.
The labeled cDNAs were dissolved in TE buffer (10 mM Tris-HCl/1 mM EDTA, pH 8.0), and the solution was dropped on the DNA chip containing the whole genes of yeast (DNA Chip Research Inc. Japan) so that the cDNAs were hybridized on the DNA chip at 65° C. for over 12 hours. The fluoresces intensity of the DNA chip was read with a scanner, and the ratio relative to the fluorescence intensity resulting from the absence of chemical substance was estimated as the following, which is shown in Tables 1 to 9.
In the Tables, “Intensity” indicated in the rightmost column is a value of the level of expressed mRNA of each gene in control cells as divided by the average level of the expressions of the whole genes. A gene of which mRNA level is lower in control, and is higher in cases of addition of chemical substance, is especially useful in the detection of toxic substances.
Here, when a ratio of an amount of mRNA expressed in the presence of the chemical substance to an amount of mRNA expressed in the absence of the chemical substance is two or more, then it is considered significant.

S=C([S-])NCCNC(=S)[S-].[Zn+2] [(11), Zinc N,N′-ethylenebis(dithiocarbamate)]
The level of expressed mRNA in the presence of chemical substance/The level of expressed mRNA in the absence of chemical substance (yeast gene YGL037C, cultured two hours with substance): 3.9 | The level of expressed mRNA in the presence of chemical substance/The level of expressed mRNA in the absence of chemical substance (yeast gene YGL047W, cultured two hours with substance): 1.9 | The level of expressed mRNA in the presence of chemical substance/The level of expressed mRNA in the absence of chemical substance (yeast gene YGL053W, cultured two hours with substance): 1.3 | The level of expressed mRNA in the presence of chemical substance/The level of expressed mRNA in the absence of chemical substance (yeast gene YGL121C, cultured two hours with substance): 6.1 | The level of expressed mRNA in the presence of chemical substance/The level of expressed mRNA in the absence of chemical substance (yeast gene YGL136C, cultured two hours with substance): 1.4 | The level of expressed mRNA in the presence of chemical substance/The level of expressed mRNA in the absence of chemical substance (yeast gene YGR101W, cultured two hours with substance): 2.0 | The level of expressed mRNA in the presence of chemical substance/The level of expressed mRNA in the absence of chemical substance (yeast gene YGR110W, cultured two hours with substance): 0.5 | The level of expressed mRNA in the presence of chemical substance/The level of expressed mRNA in the absence of chemical substance (yeast gene YGR130C, cultured two hours with substance): 0.8 | The level of expressed mRNA in the presence of chemical substance/The level of expressed mRNA in the absence of chemical substance (yeast gene YGR146C, cultured two hours with substance): 0.9 | The level of expressed mRNA in the presence of chemical substance/The level of expressed mRNA in the absence of chemical substance (yeast gene YGR154C, cultured two hours with substance): 1.5 | The level of expressed mRNA in the presence of chemical substance/The level of expressed mRNA in the absence of chemical substance (yeast gene YGR221C, cultured two hours with substance): 0.5 | The level of expressed mRNA in the presence of chemical substance/The level of expressed mRNA in the absence of chemical substance (yeast gene YHR029C, cultured two hours with substance): 3.8 | The level of expressed mRNA in the presence of chemical substance/The level of expressed mRNA in the absence of chemical substance (yeast gene YHR138C, cultured two hours with substance): 1.6 | The level of expressed mRNA in the presence of chemical substance/The level of expressed mRNA in the absence of chemical substance (yeast gene YHR199C, cultured two hours with substance): 1.9 | The level of expressed mRNA in the presence of chemical substance/The level of expressed mRNA in the absence of chemical substance (yeast gene YHR209W, cultured two hours with substance): 3.3 | The level of expressed mRNA in the presence of chemical substance/The level of expressed mRNA in the absence of chemical substance (yeast gene YIL023C, cultured two hours with substance): 1.1 | The level of expressed mRNA in the presence of chemical substance/The level of expressed mRNA in the absence of chemical substance (yeast gene YIL024C, cultured two hours with substance): 0.6 | The level of expressed mRNA in the presence of chemical substance/The level of expressed mRNA in the absence of chemical substance (yeast gene YIL041W, cultured two hours with substance): 1.4 | The level of expressed mRNA in the presence of chemical substance/The level of expressed mRNA in the absence of chemical substance (yeast gene YIL087C, cultured two hours with substance): 2.8 | The level of expressed mRNA in the presence of chemical substance/The level of expressed mRNA in the absence of chemical substance (yeast gene YIL117C, cultured two hours with substance): 1.8 | The level of expressed mRNA in the presence of chemical substance/The level of expressed mRNA in the absence of chemical substance (yeast gene YIL136W, mitochondria-located protein gene): 4.8 | The level of expressed mRNA in the presence of chemical substance/The level of expressed mRNA in the absence of chemical substance (yeast gene YIR024C): 6.3 | The level of expressed mRNA in the presence of chemical substance/The level of expressed mRNA in the absence of chemical substance (yeast gene YJL020C, cultured two hours with substance): 0.6 | The level of expressed mRNA in the presence of chemical substance/The level of expressed mRNA in the absence of chemical substance (yeast gene YJL057C, cultured two hours with substance): 2.0 | The level of expressed mRNA in the presence of chemical substance/The level of expressed mRNA in the absence of chemical substance (yeast gene YJL066C, cultured two hours with substance): 0.8 | The level of expressed mRNA in the presence of chemical substance/The level of expressed mRNA in the absence of chemical substance (yeast gene YJL082W, cultured two hours with substance): 1.0 | The level of expressed mRNA in the presence of chemical substance/The level of expressed mRNA in the absence of chemical substance (yeast gene YJL108C, cultured two hours with substance): 1.0 | The level of expressed mRNA in the presence of chemical substance/The level of expressed mRNA in the absence of chemical substance (yeast gene YJL144W, cultured two hours with substance): 3.0 | The level of expressed mRNA in the presence of chemical substance/The level of expressed mRNA in the absence of chemical substance (yeast gene YJL149W, cultured two hours with substance): 1.5 | The level of expressed mRNA in the presence of chemical substance/The level of expressed mRNA in the absence of chemical substance (yeast gene YJL151C, cultured two hours with substance): 1.0 | The level of expressed mRNA in the presence of chemical substance/The level of expressed mRNA in the absence of chemical substance (yeast gene YJL152W, cultured two hours with substance): 1.0 | The level of expressed mRNA in the presence of chemical substance/The level of expressed mRNA in the absence of chemical substance (yeast gene YJL161W, cultured two hours with substance): 3.7 | The level of expressed mRNA in the presence of chemical substance/The level of expressed mRNA in the absence of chemical substance (yeast gene YJL171C, cultured two hours with substance): 2.2 | The level of expressed mRNA in the presence of chemical substance/The level of expressed mRNA in the absence of chemical substance (yeast gene YJL186W, cultured two hours with substance): 0.6 | The level of expressed mRNA in the presence of chemical substance/The level of expressed mRNA in the absence of chemical substance (yeast gene YJR008W, cultured two hours with substance): 1.4 | The level of expressed mRNA in the presence of chemical substance/The level of expressed mRNA in the absence of chemical substance (yeast gene YJR054W, cultured two hours with substance): 0.7 | The level of expressed mRNA in the presence of chemical substance/The level of expressed mRNA in the absence of chemical substance (yeast gene YJR085C, cultured two hours with substance): 2.9 | The level of expressed mRNA in the presence of chemical substance/The level of expressed mRNA in the absence of chemical substance (yeast gene YKL034W, cultured two hours with substance): 1.2 | The level of expressed mRNA in the presence of chemical substance/The level of expressed mRNA in the absence of chemical substance (yeast gene YKL070W): 10.4 | The level of expressed mRNA in the presence of chemical substance/The level of expressed mRNA in the absence of chemical substance (yeast gene YKL071W, cultured two hours with substance): 40.3
